Literature values, collected in patent US10246411B2, “(Z)-3,4,5-trimethoxystyrylbenzenesulfonamides as potential anticancer agents” (COUNCIL OF SCIENTIFIC & INDUSTRIAL RESEARCH, priority 2014, dated 2019).

Tests used:
tubulin = conditions: background, literature; cited from earlier work
[1] = test system: VCR-resistant P388 cell lines; conditions: two kinds of VCR-resistant P388 cell lines; background, literature; cited from earlier work

Which “inhibition of tubulin polymerization” value (tubulin) does the source give for `COc1cc(/C=C\c2ccc(OC)c(N)c2)cc(OC)c1` [(Z)-5-(3,5-dimethoxystyryl)-2-methoxyaniline] here?
Its value is “five times stronger than CA-4”.

For `COc1ccc(/C=C\c2cc(OC)c(OC)c(OC)c2)cc1O` [CA-4, Combretastatin A-4], which “inhibition of tubulin polymerization” value (tubulin) is on record?
The value was “potent inhibitor of tubulin polymerization”.

With `COc1ccc(S(=O)(=O)Nc2cccnc2Nc2ccc(O)cc2)cc1` [E7010, N-[2-[(4-hydroxyphenyl)amino]-3-pyridinyl]-4-methoxybenzenesulfonamide] as the compound, how does the “inhibition of tubulin polymerization” value (tubulin) read?
The value was “dose-dependent inhibition of tubulin polymerization”.

What about the “activity against VCR-resistant P388 cell lines” value [1] of the same compound?
Its value is “active”.
